The text below walks through data of ChEMBL document CHEMBL1909046, “DrugMatrix in vitro pharmacology data”.

Molecules are shown by their SMILES.

Sequence of Estrogen receptor beta (Q92731 whole entry): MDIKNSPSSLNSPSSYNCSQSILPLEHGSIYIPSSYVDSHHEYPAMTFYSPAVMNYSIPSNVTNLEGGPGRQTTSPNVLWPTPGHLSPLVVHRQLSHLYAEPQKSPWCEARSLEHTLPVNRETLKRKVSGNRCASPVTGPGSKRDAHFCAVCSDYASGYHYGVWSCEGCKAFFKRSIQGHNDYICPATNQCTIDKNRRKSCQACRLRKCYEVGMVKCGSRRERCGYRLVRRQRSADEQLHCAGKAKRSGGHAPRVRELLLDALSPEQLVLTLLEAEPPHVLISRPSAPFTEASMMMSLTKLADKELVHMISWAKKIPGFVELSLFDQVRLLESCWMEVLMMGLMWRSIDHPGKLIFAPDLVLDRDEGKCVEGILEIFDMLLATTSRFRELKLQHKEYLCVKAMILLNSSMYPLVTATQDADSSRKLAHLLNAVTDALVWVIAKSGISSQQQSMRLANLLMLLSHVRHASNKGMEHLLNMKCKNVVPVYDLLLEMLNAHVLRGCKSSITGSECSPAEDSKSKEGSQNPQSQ
Sequence of Insulin receptor (P15127 27-759 limits assumed): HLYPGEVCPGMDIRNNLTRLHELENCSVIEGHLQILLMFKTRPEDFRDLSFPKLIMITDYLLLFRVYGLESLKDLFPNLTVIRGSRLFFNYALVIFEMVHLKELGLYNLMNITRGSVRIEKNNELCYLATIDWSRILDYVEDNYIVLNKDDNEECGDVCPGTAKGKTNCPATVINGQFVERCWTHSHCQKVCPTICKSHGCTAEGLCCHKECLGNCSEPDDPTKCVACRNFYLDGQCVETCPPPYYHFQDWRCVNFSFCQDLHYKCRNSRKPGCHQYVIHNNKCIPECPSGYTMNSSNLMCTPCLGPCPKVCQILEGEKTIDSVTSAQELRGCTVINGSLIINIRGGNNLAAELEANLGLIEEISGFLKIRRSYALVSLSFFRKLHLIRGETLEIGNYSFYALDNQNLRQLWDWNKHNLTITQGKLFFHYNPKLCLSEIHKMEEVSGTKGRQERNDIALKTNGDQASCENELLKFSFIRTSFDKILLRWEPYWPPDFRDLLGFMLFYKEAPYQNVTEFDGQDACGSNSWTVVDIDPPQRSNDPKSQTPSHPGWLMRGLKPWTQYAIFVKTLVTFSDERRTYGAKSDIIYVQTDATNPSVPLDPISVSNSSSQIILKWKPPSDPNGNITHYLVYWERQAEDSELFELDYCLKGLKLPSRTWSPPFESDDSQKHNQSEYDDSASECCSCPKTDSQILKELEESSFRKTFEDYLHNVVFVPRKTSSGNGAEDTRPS
Sequence of Insulin receptor (P15127 764-1383 limits assumed): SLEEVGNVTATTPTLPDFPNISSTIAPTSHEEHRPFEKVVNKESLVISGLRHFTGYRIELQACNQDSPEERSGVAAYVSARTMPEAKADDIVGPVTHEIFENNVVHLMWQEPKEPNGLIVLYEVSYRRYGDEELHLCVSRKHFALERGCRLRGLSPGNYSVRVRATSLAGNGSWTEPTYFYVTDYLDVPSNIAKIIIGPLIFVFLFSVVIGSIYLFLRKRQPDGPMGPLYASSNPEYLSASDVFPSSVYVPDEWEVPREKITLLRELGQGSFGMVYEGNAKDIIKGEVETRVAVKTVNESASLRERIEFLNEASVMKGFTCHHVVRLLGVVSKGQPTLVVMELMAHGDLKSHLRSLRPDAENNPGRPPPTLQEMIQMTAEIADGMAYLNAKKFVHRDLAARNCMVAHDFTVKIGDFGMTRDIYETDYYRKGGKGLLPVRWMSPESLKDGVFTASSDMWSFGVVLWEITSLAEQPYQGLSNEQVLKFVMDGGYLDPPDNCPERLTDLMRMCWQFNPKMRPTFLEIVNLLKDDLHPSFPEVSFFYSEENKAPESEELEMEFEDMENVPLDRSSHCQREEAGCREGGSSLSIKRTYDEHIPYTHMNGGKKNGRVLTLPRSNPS

Test system in one assay: not listed separately
Kind of assay: DRUGMATRIX: ATPase, Na+/K+ enzyme inhibition (substrate: ATP). The assay is classed as tissue-based, Sus scrofa, Heart. Particulars: Not Active = under 50% inhibition at 10 µM.
In the case of `Cc1ccccc1N1CCN(CCc2nnc3n2CCCC3)CC1` [DAPIPRAZOLE], the IC50 entry is listed as “Not Active” and the Ki entry is reported as “Not Active”.

As for `COCc1c(C(C)C)nc(C(C)C)c(/C=C/[C@@H](O)C[C@@H](O)CC(=O)O)c1-c1ccc(F)cc1` [CERIVASTATIN], the IC50 entry is “Not Active” and the Ki result was “Not Active”.

On to `CN1CCC[C@H]1c1cccnc1` [NICOTINE], for which the IC50 result is “Not Active” and the Ki entry is “Not Active”.

In the next assay the target is C-C chemokine receptor type 2 (Homo sapiens, UniProt P41597). Further: in other assays of this panel Not Active means under 50% inhibition at 10 µM.
Sequence of C-C chemokine receptor type 2 (P41597 whole entry): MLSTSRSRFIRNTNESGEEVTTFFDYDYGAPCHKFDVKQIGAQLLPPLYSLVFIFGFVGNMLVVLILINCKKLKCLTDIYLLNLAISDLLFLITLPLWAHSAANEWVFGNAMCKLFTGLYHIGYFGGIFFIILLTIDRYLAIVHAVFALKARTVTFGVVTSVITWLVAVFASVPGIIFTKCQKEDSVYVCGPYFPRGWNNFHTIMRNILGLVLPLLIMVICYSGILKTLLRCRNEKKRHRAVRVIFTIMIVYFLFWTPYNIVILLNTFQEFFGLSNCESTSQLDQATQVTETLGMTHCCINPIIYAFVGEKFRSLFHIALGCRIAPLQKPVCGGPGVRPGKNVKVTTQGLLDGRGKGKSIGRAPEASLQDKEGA
Test: not given
The assay is classed as cell membranes, CHO-K1, Membrane. The following applies: cho-k1.
In the case of `Cc1ccccc1N1CCN(CCc2nnc3n2CCCC3)CC1` [DAPIPRAZOLE], the IC50 result was “Not Active”.

Consider `COCc1c(C(C)C)nc(C(C)C)c(/C=C/[C@@H](O)C[C@@H](O)CC(=O)O)c1-c1ccc(F)cc1` [CERIVASTATIN], for which the IC50 entry is reported as “Not Active”.

For the molecule `CN1CCC[C@H]1c1cccnc1` [NICOTINE], the IC50 entry was “Not Active”.

The next assay concerns the target T1, C-C chemokine receptor type 4 (Homo sapiens, UniProt P51679). Further: in other assays of this panel Not Active means under 50% inhibition at 10 µM.
T1 sequence (P51679 whole entry): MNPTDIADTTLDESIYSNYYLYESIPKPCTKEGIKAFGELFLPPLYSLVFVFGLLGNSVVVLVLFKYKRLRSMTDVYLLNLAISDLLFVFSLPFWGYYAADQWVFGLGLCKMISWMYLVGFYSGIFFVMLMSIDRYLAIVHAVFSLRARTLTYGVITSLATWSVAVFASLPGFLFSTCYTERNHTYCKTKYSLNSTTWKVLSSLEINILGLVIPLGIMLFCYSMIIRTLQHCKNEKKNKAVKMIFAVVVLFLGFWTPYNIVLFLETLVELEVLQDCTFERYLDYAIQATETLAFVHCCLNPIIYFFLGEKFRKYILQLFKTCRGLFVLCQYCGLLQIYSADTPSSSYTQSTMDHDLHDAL
Test: not given
It is filed as cell membranes, Membrane. The following applies: chem-1.
As to `Cc1ccccc1N1CCN(CCc2nnc3n2CCCC3)CC1` [DAPIPRAZOLE], the IC50 entry is listed as “Not Active”.

For `COCc1c(C(C)C)nc(C(C)C)c(/C=C/[C@@H](O)C[C@@H](O)CC(=O)O)c1-c1ccc(F)cc1` [CERIVASTATIN], the IC50 entry is “Not Active”.

With `CN1CCC[C@H]1c1cccnc1` [NICOTINE], the IC50 entry is given as “Not Active”.

Test system in the next assay: not listed separately
Kind of assay: DRUGMATRIX: Glutamate, AMPA radioligand binding (ligand: [3H] AMPA). It is filed as cell membranes, Rattus norvegicus, Wistar, Cerebral cortex, Membrane. The following applies: Not Active = under 50% inhibition at 10 µM.
As for `Cc1ccccc1N1CCN(CCc2nnc3n2CCCC3)CC1` [DAPIPRAZOLE], the IC50 result is on record as “Not Active” and the Ki entry is “Not Active”.

`COCc1c(C(C)C)nc(C(C)C)c(/C=C/[C@@H](O)C[C@@H](O)CC(=O)O)c1-c1ccc(F)cc1` [CERIVASTATIN]: the IC50 result is “Not Active” and the Ki result is on record as “Not Active”.

On to `CN1CCC[C@H]1c1cccnc1` [NICOTINE], for which the IC50 entry is given as “Not Active” and the Ki result is recorded as “Not Active”.

Test system in another assay: not listed separately
Kind of assay: DRUGMATRIX: Glutamate, Kainate radioligand binding (ligand: [3H] Kainic acid). The following applies: Not Active = under 50% inhibition at 10 µM. It is filed as cell membranes, Rattus norvegicus, Wistar, Brain, Membrane.
In the case of `Cc1ccccc1N1CCN(CCc2nnc3n2CCCC3)CC1` [DAPIPRAZOLE], the IC50 result is listed as “Not Active” and the Ki result is “Not Active”.

In the case of `COCc1c(C(C)C)nc(C(C)C)c(/C=C/[C@@H](O)C[C@@H](O)CC(=O)O)c1-c1ccc(F)cc1` [CERIVASTATIN], the IC50 entry is recorded as “Not Active” and the Ki result is “Not Active”.

In the case of `CN1CCC[C@H]1c1cccnc1` [NICOTINE], the IC50 result is “Not Active” and the Ki result is recorded as “Not Active”.

A further assay has as its target Insulin receptor (Rattus norvegicus, UniProt P15127). Further: in other assays of this panel Not Active means under 50% inhibition at 10 µM.
Test: not given
Details: not given
The assay is classed as cell membranes, Wistar, Liver, Membrane.
With `Cc1ccccc1N1CCN(CCc2nnc3n2CCCC3)CC1` [DAPIPRAZOLE], the IC50 result is reported as “Not Active”.

In the case of `COCc1c(C(C)C)nc(C(C)C)c(/C=C/[C@@H](O)C[C@@H](O)CC(=O)O)c1-c1ccc(F)cc1` [CERIVASTATIN], the IC50 entry is “Not Active”.

For the molecule `CN1CCC[C@H]1c1cccnc1` [NICOTINE], the IC50 entry is recorded as “Not Active”.

In another assay the target is T2, Leukotriene C4 synthase (Cavia porcellus, UniProt A6XA80).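 Further: enzyme inhibition assay of leukotriene C4 synthase, using LTA4 as the substrate; in other assays of this panel Not Active means under 50% inhibition at 10 µM.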
T2 sequence (A6XA80 whole entry): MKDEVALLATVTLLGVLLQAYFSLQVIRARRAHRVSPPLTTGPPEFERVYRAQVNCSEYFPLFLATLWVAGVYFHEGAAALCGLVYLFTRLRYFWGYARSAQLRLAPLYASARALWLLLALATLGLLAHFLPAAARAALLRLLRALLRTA
Kind of assay: biochemical. The assay is classed as tissue-based, Lung.
Details: not given
Regarding `Cc1ccccc1N1CCN(CCc2nnc3n2CCCC3)CC1` [DAPIPRAZOLE], the IC50 entry was “Not Active”.

Take `COCc1c(C(C)C)nc(C(C)C)c(/C=C/[C@@H](O)C[C@@H](O)CC(=O)O)c1-c1ccc(F)cc1` [CERIVASTATIN]: the IC50 entry is “Not Active”.

Take `CN1CCC[C@H]1c1cccnc1` [NICOTINE]: the IC50 entry is reported as “Not Active”.

For a further assay, the target named is T3, Neuropeptide Y receptor type 1 (Homo sapiens, UniProt P25929). Further: in other assays of this panel Not Active means under 50% inhibition at 10 µM.
T3 sequence (P25929 whole entry): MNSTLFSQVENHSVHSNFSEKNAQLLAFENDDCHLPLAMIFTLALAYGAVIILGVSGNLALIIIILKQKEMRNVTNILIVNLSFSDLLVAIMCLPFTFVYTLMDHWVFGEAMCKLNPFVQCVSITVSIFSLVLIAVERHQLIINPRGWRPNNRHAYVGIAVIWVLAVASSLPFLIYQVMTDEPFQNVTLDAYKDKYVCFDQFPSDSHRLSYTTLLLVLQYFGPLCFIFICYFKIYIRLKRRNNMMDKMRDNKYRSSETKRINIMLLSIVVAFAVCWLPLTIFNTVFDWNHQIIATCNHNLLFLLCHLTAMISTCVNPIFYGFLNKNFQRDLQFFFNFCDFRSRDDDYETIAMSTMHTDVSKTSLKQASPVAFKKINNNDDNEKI
Test: not given
The assay is classed as cell membranes, Membrane. The following applies: sk-n-mc.
On to `Cc1ccccc1N1CCN(CCc2nnc3n2CCCC3)CC1` [DAPIPRAZOLE], for which the IC50 result is “Not Active”.

As to `COCc1c(C(C)C)nc(C(C)C)c(/C=C/[C@@H](O)C[C@@H](O)CC(=O)O)c1-c1ccc(F)cc1` [CERIVASTATIN], the IC50 entry is “Not Active”.

Turning to `CN1CCC[C@H]1c1cccnc1` [NICOTINE], the IC50 entry is “Not Active”.

The next assay deals with T4, Nitric oxide synthase, inducible (Mus musculus, UniProt P29477).
T4 sequence (P29477 whole entry): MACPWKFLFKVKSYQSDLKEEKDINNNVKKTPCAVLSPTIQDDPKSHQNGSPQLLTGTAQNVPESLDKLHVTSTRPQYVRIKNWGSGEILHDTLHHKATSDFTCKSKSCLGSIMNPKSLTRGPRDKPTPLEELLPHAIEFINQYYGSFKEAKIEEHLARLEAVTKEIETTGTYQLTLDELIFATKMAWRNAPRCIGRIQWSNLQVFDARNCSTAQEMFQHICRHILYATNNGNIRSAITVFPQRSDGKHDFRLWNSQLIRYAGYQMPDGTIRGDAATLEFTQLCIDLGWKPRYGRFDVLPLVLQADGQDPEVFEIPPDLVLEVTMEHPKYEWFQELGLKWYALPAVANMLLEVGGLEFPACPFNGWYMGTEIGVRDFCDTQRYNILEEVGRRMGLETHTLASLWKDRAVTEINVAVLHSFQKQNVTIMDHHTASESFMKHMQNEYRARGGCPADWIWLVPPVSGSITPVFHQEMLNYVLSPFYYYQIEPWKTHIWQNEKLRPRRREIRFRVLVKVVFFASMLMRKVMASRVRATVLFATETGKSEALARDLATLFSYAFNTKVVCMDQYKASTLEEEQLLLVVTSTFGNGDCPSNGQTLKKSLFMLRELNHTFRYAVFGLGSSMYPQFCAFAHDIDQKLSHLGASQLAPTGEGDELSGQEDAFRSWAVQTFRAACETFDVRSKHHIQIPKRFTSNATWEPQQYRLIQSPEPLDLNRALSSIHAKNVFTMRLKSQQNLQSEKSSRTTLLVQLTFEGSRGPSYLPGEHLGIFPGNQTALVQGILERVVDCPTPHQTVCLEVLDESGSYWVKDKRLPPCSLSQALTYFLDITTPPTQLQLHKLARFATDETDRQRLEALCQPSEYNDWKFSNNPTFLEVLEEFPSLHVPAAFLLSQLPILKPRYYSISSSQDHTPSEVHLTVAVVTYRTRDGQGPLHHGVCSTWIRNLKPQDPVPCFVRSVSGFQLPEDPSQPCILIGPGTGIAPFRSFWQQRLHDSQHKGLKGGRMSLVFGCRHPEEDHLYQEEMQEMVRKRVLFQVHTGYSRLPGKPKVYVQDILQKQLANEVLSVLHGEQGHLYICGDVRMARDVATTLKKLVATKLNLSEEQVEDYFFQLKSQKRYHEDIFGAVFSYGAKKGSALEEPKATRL
Test: not given
Details: species or system Escherichia coli.
Details: not given
Regarding `Cc1ccccc1N1CCN(CCc2nnc3n2CCCC3)CC1` [DAPIPRAZOLE], the IC50 entry was “Not Active”.

Consider `COCc1c(C(C)C)nc(C(C)C)c(/C=C/[C@@H](O)C[C@@H](O)CC(=O)O)c1-c1ccc(F)cc1` [CERIVASTATIN], for which the IC50 result is “Not Active”.

Turning to `CN1CCC[C@H]1c1cccnc1` [NICOTINE], the IC50 result was “Not Active”.

Test system in the next assay: not listed separately
Briefly: DRUGMATRIX: Phorbol Ester radioligand binding (ligand: [3H] PDBu). The assay is classed as cell membranes, Mus musculus, ICR, Brain, Membrane. Particulars: Not Active = under 50% inhibition at 10 µM.
As to `Cc1ccccc1N1CCN(CCc2nnc3n2CCCC3)CC1` [DAPIPRAZOLE], the IC50 result is “Not Active” and the Ki entry is on record as “Not Active”.

Regarding `COCc1c(C(C)C)nc(C(C)C)c(/C=C/[C@@H](O)C[C@@H](O)CC(=O)O)c1-c1ccc(F)cc1` [CERIVASTATIN], the IC50 entry is reported as “Not Active” and the Ki entry is given as “Not Active”.

In the case of `CN1CCC[C@H]1c1cccnc1` [NICOTINE], the IC50 result is on record as “Not Active” and the Ki entry was “Not Active”.

The target of another assay is cGMP-specific 3',5'-cyclic phosphodiesterase (Homo sapiens, UniProt O76074). Kind of assay: DRUGMATRIX: Phosphodiesterase PDE5 enzyme inhibition (substrate: [3H]cGMP + cGMP). Particulars: platelet; Not Active = under 50% inhibition at 10 µM. The assay is classed as tissue-based, Platelet.
As for `Cc1ccccc1N1CCN(CCc2nnc3n2CCCC3)CC1` [DAPIPRAZOLE], the IC50 entry is given as “Not Active”.

On to `COCc1c(C(C)C)nc(C(C)C)c(/C=C/[C@@H](O)C[C@@H](O)CC(=O)O)c1-c1ccc(F)cc1` [CERIVASTATIN], for which the IC50 result is listed as “Not Active”.

For the molecule `CN1CCC[C@H]1c1cccnc1` [NICOTINE], the IC50 result was “Not Active”.

The next assay addresses T5, Neutrophil elastase (Homo sapiens, UniProt P08246).
T5 sequence (P08246 whole entry): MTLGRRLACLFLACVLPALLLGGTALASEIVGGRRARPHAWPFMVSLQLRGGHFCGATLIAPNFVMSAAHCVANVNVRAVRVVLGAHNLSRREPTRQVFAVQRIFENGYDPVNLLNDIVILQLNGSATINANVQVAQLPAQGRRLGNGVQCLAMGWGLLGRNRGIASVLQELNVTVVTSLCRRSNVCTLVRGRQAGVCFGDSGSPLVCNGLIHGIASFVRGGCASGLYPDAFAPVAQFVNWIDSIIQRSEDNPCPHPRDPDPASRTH
Test: not given
It is filed as tissue-based.
Details: not given
As for `Cc1ccccc1N1CCN(CCc2nnc3n2CCCC3)CC1` [DAPIPRAZOLE], the IC50 entry was “Not Active”.

With `COCc1c(C(C)C)nc(C(C)C)c(/C=C/[C@@H](O)C[C@@H](O)CC(=O)O)c1-c1ccc(F)cc1` [CERIVASTATIN], the IC50 entry is “Not Active”.

In the case of `CN1CCC[C@H]1c1cccnc1` [NICOTINE], the IC50 result is given as “Not Active”.

A further assay has as its target Estrogen receptor beta (Homo sapiens, UniProt Q92731). Further: in other assays of this panel Not Active means under 50% inhibition at 10 µM.
Test: not given
Particulars: sf9.
With `Cc1ccccc1N1CCN(CCc2nnc3n2CCCC3)CC1` [DAPIPRAZOLE], the IC50 entry is “Not Active”.

As to `COCc1c(C(C)C)nc(C(C)C)c(/C=C/[C@@H](O)C[C@@H](O)CC(=O)O)c1-c1ccc(F)cc1` [CERIVASTATIN], the IC50 result was “Not Active”.

As to `CN1CCC[C@H]1c1cccnc1` [NICOTINE], the IC50 result is reported as “Not Active”.
